Several values for one entry are separate records, joined by “and”; a condition that tells them apart may be missing. Equal entries are not always repeated. Entries after “also recorded” stand apart in the source; their conditions may differ. Structures can show the parent of a compound that is named as a salt.

From US20080070852A1, “3-Beta-D-Ribofuranosylthiazolo[ 4,5-D] Pyridimine Nucleosides and Uses Thereof” (priority 2004, published 2008) come the findings set out here.

Series [1] relates to interferon alpha (Mu-IFN-α). Nature of the series: Murine interferon alpha in plasma of dosed mice. Conditions: for Plasma Concentration of Interferon Alpha (Mu-IFN-α), Mean / Plasma Concentration of Interferon Alpha (Mu-IFN-α), Individual Value: single oral 73.0 mg/kg dose. The class given is in vivo. The source says: The normal mouse provides a useful system for the assessment of the degree to which the inventions described herein provide material improvement in the oral delivery of 1 (isatoribine). Not only can one measure the plasma concentrations of isatoribine arising from oral administration of the said prodrug(s) but also the extensive immunological research conducted in the mouse has provided reagents suitable for measuring the levels of interferon alpha, a cytokine of interest reflecting one of the desired biologic activities of isatoribine.
Table 1 records the results of an assay for murine interferon alpha in the plasma of mice that were dosed two times with isatoribine, formulated in bicarbonate, at a level of 50 mg/kg by the oral route.
Table 2 records the results of assays for murine interferon alpha in the plasma of mice that first were dosed with bicarbonate and then four hours later were dosed orally with isatoribine, formulated in bicarbonate, at a level of 50 mg/kg. Interferon was reported in the plasma from four mice, including two that had received the bicarbonate vehicle dose.
Table 3 records the results of assays for murine interferon alpha in the plasma of mice that were dosed orally with val-isatoribine, dissolved in bicarbonate, at a dose that is equivalent to 50/mg/kg of isatoribine on a molar basis. […] Interferon was detected in all mice assayed at a given time point, indicating the reliability of the effect following val-isatoribine administration.
In other experiments, plasma levels of isatoribine and interferon alpha were measured in mice that were dosed with isatoribine by the intravenous route, and these levels were compared to the levels of isatoribine and interferon alpha arising after oral administration of val-isatoribine. […] Thus, oral val-isatoribine provides levels of isatoribine and interferon that are approximately 50% of those observed after intravenous administration of isatoribine itself.

Series [2] in a line: Systemic exposure to isatoribine after oral administration to beagle dogs. It counts as in vivo. To be noted: both 10 and 50 mg/kg. The procedure:
The effect of a prodrug (val-isatoribine, 3) on the systemic exposure to isatoribine (1) after oral administration to beagle dogs was investigated. Isatoribine was prepared in sodium bicarbonate solution.
Four male and four female adult beagle dogs weighing between 15 to 27 kg and approximately 1-2 years old were used at the beginning of the study. The animals were divided into 2 groups of 2 males and 2 females each. The test material was administered by gavage on Days 1 and 8, allowing a 7-day washout period between administrations. Blood samples (2 mL) were collected from each animal at predose, 15, 30 minutes, 1, 2, 3, 4, 6, 8 and 10 hours into lithium heparin tubes after each dosing. The plasma was frozen at −70° C. until analysis. The plasma was analyzed for isatoribine by an HPLC-MS/MS assay.

The next series deals with beagle dogs. Nature of the series: Toxicology studies in beagle dogs (GI tolerance). To be noted: dogs; for Emesis or loose stool / GI lesions or irritation: Oral Val-Isatoribine.
The next series is described as follows: in vitro. Conditions: human, Caco-2. It counts as in vitro ADME. The source says: (§1) See, e.g., Hilgers, A. R. et al., Pharm. Res., 20(8), 1149-55 (August 2003).
A further series relates to Caco-2 cells. Nature of the series: in vitro. It counts as in vitro ADME. To be noted: human.
Text: as §1

[3] abbreviates: oral dosing, studies of Tables 1-3.
Where [4] appears, read: isatoribine equivalent applied dose 8.1 mg/kg.
Where [5] appears, read: isatoribine equivalent applied dose 16 mg/kg.
[6] abbreviates: isatoribine equivalent applied dose 32 mg/kg.
[7] abbreviates: isatoribine equivalent applied dose 64 mg/kg.

For orientation: melting point means the temperature, or range, at which the solid turns liquid. As to `CC(C)[C@H](N)C(=O)OC[C@H]1O[C@@H](n2c(=O)sc3c(O)nc(N)nc32)[C@H](O)[C@@H]1O` (as salt: hydrochloride) [Compound 3, 5-Amino-3-(5′-O-L-valinyl-β-D-ribofuranosyl)thiazolo[4,5-d]pyrimidine-2,7-dione Dihydrochloride], the melting point is 166 to 168 °C (dec.).
As for `CN[C@H](C(=O)OC[C@H]1O[C@@H](n2c(=O)sc3c(O)nc(N)nc32)[C@H](O)[C@@H]1O)C(C)C` (as salt: hydrochloride) [Compound 11, 5-Amino-3-(5′-O-[α-L-N-methylvalinyl]-β-D-ribofuranosyl)thiazolo[4,5-d]pyrimidine-2,7-dione Hydrochloride], the melting point is > 180 °C (dec.).
As to `CC(C)[C@H](N)C(=O)OC[C@H]1O[C@@H](n2c(=O)sc3c(O)nc(N)nc32)[C@H](O)[C@@H]1O` [Compound 3, 5-Amino-3-(5′-O-L-valinyl-β-D-ribofuranosyl)thiazolo[4,5-d]pyrimidine-2,7-dione Dihydrochloride], the “increase of magnitude of average and peak interferon response versus isatoribine” value in series [1] (mice, oral) is on record as “twofold”. Besides, the “level of interferon relative to intravenous isatoribine” value in series [1] (mice, oral, 50 mg/kg isatoribine molar equivalent, vs intravenous isatoribine 25 mg/kg, FIG. 1) was “approximately 50%”. In series [1] (mice, oral, equivalent to 50 mg/kg isatoribine), the “interferon in plasma” value was “readily measurable at 1.0 hour, 1.5 hours, and 2.0 hours after dosing”. In addition, the “Plasma Concentration of Interferon Alpha (Mu-IFN-α), Mean” value is reported as 0.00 pg/mL in series [1] (mice, 0.00 h); 0.00 pg/mL in series [1] (mice, 0.25 h); 0.00 pg/mL in series [1] (mice, 0.50 h); 0.00 pg/mL in series [1] (mice, 0.75 h); 129.1 pg/mL in series [1] (mice, 1.00 h); 214.5 pg/mL in series [1] (mice, 1.50 h). Besides, the “Plasma Concentration of Interferon Alpha (Mu-IFN-α), Mean” value in series [1] (mice, 2.00 h) is 108.5 pg/mL; in series [1] (mice, 3.00 h), 0.00 pg/mL; in series [1] (mice, 4.00 h), 9.20 pg/mL; in series [1] (mice, 5.00 h) it was 0.00 pg/mL. In addition, the “Plasma Concentration of Interferon Alpha (Mu-IFN-α), Individual Value” in series [1] (mice, 0.00 h, listed as Val-Isatoribine, Dihydrochloride, 73 mg/kg) was “BQL (Below the Quantifiable Limit < 12.5 pg/mL); also recorded: BQL^125 pg/mL; also recorded: BQL^25 pg/mL”; in series [1] (mice, 0.25 h) it was “BQL (Below the Quantifiable Limit < 12.5 pg/mL)”; in series [1] (mice, 0.50 h, listed as Val-Isatoribine, Dihydrochloride, 73 mg/kg), “BQL^25 pg/mL; also recorded: BQL (Below the Quantifiable Limit < 12.5 pg/mL)”; in series [1] (mice, 0.75 h, listed as Val-Isatoribine, Dihydrochloride, 73 mg/kg), “BQL (Below the Quantifiable Limit < 12.5 pg/mL); also recorded: BQL^25 pg/mL”; in series [1] (mice, 1.00 h, listed as Val-Isatoribine, Dihydrochloride, 73 mg/kg) it was 173.2 pg/mL and 125.1 pg/mL and 89.0 pg/mL; in series [1] (mice, 1.50 h, listed as Val-Isatoribine, Dihydrochloride, 73 mg/kg), 202.9 pg/mL and 145.9 pg/mL and 294.8 pg/mL. Moreover, the “Plasma Concentration of Interferon Alpha (Mu-IFN-α), Individual Value” in series [1] (mice, 2.00 h, listed as Val-Isatoribine, Dihydrochloride, 73 mg/kg) is 49.2 pg/mL and 137.9 pg/mL and 138.3 pg/mL; in series [1] (mice, 3.00 h), “BQL^25 pg/mL”; in series [1] (mice, 4.00 h, listed as Val-Isatoribine, Dihydrochloride, 73 mg/kg) it was “BQL^25 pg/mL and 27.6 pg/mL and BQL (Below the Quantifiable Limit < 12.5 pg/mL)”; in series [1] (mice, 5.00 h, listed as Val-Isatoribine, Dihydrochloride, 73 mg/kg) it was “BQL (Below the Quantifiable Limit < 12.5 pg/mL); also recorded: BQL^25 pg/mL”. For the same molecule, the “mice with interferon detected in plasma” value in series [1] (setting [3]) is given as 10 of the 30. The “proportion of mice exhibiting an interferon response” value in series [1] (setting [3]) was found to be 30%. Besides, the “maximum concentrations of isatoribine compared to isatoribine itself” value in series [2] was “at least doubled”. In the series on beagle dogs (oral), the “GI lesions” value is “No GI lesions were found”. Also, the “Emesis or loose stool” value with beagle dogs (setting [4]), in the series on beagle dogs (setting [5]), with beagle dogs (setting [6]) and with beagle dogs (setting [7]) was “Neg” throughout. Moreover, the “GI lesions or irritation” value in the series with beagle dogs (setting [4]), in the series on beagle dogs (setting [5]), in the series on beagle dogs (setting [6]), in the series with beagle dogs (setting [7]), in the series with beagle dogs (isatoribine equivalent applied dose 130 mg/kg) and with beagle dogs (isatoribine equivalent applied dose 260 mg/kg) was “Neg” in each case. In addition, in the series with beagle dogs (isatoribine equivalent applied dose 390 mg/kg), the “GI lesions or irritation” value is “Neg”.
For the molecule `COc1nc(N)nc2c1sc(=O)n2[C@@H]1O[C@H](CO)[C@@H](O)[C@H]1O` [Compound 14, 5-Amino-3-β-D-ribofuranosyl-7-methoxy-thiazolo[4,5-d]pyrimidin-2-one], the melting point was > 160 °C (dec.).
On to `Nc1nc(N)c2sc(=O)n([C@@H]3O[C@H](CO)[C@@H](O)[C@H]3O)c2n1` [Compound 15, 5,7-Diamino-3-β-D-ribofuranosylthiazolo[4,5-d]pyrimidin-2-one], for which the melting point was > 155 °C (dec.).
On the same count and under the same terms, the figure for `CNc1nc(N)nc2c1sc(=O)n2[C@@H]1O[C@H](CO)[C@@H](O)[C@H]1O` [Compound 18] is over 108 °C; for `CN(C)c1nc(N)nc2c1sc(=O)n2[C@@H]1O[C@H](CO)[C@@H](O)[C@H]1O` [Compound 20, 5-Amino-7-dimethylamino-3-β-D-ribofuranosylthiazolo[4,5-d]pyrimidin-2-one] it is over 112 °C; for `Nc1nc(NC2CCCC2)c2sc(=O)n([C@@H]3O[C@H](CO)[C@@H](O)[C@H]3O)c2n1` [Compound 22, 5-Amino-7-cyclopentylamino-3-β-D-ribofuranosylthiazolo[4,5-d]pyrimidin-2-one] it is > 108 °C (dec.).
With `Nc1nc(N2CCCC2)c2sc(=O)n([C@@H]3O[C@H](CO)[C@@H](O)[C@H]3O)c2n1` [Compound 23, 5-Amino-7-pyrrolidino-3-β-D-ribofuranosylthiazolo[4,5-d]pyrimidin-2-one], the melting point is > 112.4 °C (dec.).
For orientation: Papp A→B means how fast a substance crosses the layer from the apical side. A high value points to fast passage. As for `CC(=O)OC[C@H]1O[C@@H](n2c(=O)sc3cnc(N)nc32)[C@H](OC(C)=O)[C@@H]1OC(C)=O` [Compound 78, 5-Amino-3-(2′,3′,5′-tri-O-acetyl-β-D-ribofuranosyl)-3H-thiazolo[4,5-d]pyrimidin-2-one], the melting point fell in the range of 121 to 123 °C. Moreover, the Papp A→B in the series “in vitro” amounted to 60 ×10⁻⁶ cm/s. In addition, the “Caco2 transport compared with 79” value in the series on Caco-2 cells is reported as “significantly improved transport over 79”.
With `Nc1ncc2sc(=O)n([C@@H]3O[C@H](CO)[C@@H](O)[C@H]3O)c2n1` [Compound 79, 5-Amino-3-β-D-ribofuranosyl-3H-thiazolo-[4,5-d]pyrimidin-2-one], the melting point was 220 °C (dec.). This molecule showed an apical-to-basolateral permeability (Papp A→B) in the series “in vitro” of 10 ×10⁻⁶ cm/s.
With `CC(=O)O[C@@H]1[C@H](OC(C)=O)[C@@H](CO)O[C@H]1n1c(=O)sc2cnc(N)nc21` [Compound 89, 5-Amino-3-(2′,3′-di-O-acetyl-β-D-ribofuranosyl)-3H-thiazolo[4,5-d]pyrimidin-2-one], the melting point is 109 to 111 °C. In the series “in vitro”, this molecule had a Papp A→B of 20 ×10⁻⁶ cm/s. The “Caco2 transport compared with 79” value in the series with Caco-2 cells is listed as “significantly improved transport over 79”.
